“And” between values parts separate entries of the source, which are not always exact repeats. Equal values may be shown once. Read-outs that look alike come from different tables or passages of the source.
Key:
B. burgdorferi N40 [1] = assay: Dark-field microscopy of treated cultures (motility); type: cell-based, Borrelia burgdorferi; details: 24 h treatment
Procedure: The infectious N40 B. burgdorferi culture was treated with ten 2-fold serial dilutions of ampicillin overnight. Stocks of ampicillin at 200 µg/mL to 0.385 µg/mL concentrations were used to prepare different dilutions for treatment (final 10 to 0.0195 µg/well). The bioluminescence standard curve (Figure 3) was used to calculate the percentage of physiologically compromised B. burgdorferi after treatment with different ampicillin concentration for 24 h. Ampicillin treatment affected the viability of the spirochetes (Figure 4A). […] A prolonged incubation could increase killing by ampicillin at lower doses of drug. In addition to bioluminescence, the cultures were also observed under dark-field microscopy to examine viability.

[2] = test system: B. burgdorferi strain N40; assay: microbe, parasite or virus in culture; type: cell-based, Borrelia burgdorferi; details: 24 h treatment; calculated from graphs
Procedure: B. burgdorferi N40 strain carrying a firefly luciferase gene (Bbluc), which is a derivative of the N40D10/E9 clone, was used in this study and is labeled as N40 throughout. N40 was cultured at 33 °C in Barbour-Stoenner-Kelly-II (BSK-II) medium supplemented with 6% rabbit serum (BSKII-RS). Bacterial counts were determined under 400× magnification using a hemocytometer and a dark field microscope.
The luciferase expressing B. burgdorferi N40 strain was grown to a density of ~10^8 spirochetes/mL and divided into two aliquots. One aliquot was incubated at 60 °C for 30 min to kill the spirochetes. […] The culture was mixed with the substrate by shaking in the dark, incubated at 37 °C for 5 min in a Spectramax M2 microplate reader (Molecular Devices, San Jose, CA, USA) and the bioluminescence measured. […]
Nucleosides and nucleoside analogs were prepared as sterile 1 mM stock solutions in distilled water (MSeA, IADO, FSBA, and dEt-ImmA) or in DMSO (PurTA). […] Photon emission due to luciferase activity was measured at three time points, after: (a) 24 h, (b) 72 h, and (c) 7 days of treatments to observe the effect of inhibitors on B. burgdorferi culture. At the end of each time point, bioluminescence was measured as described above. […]

B. burgdorferi N40 [3] = assay: Subculture without inhibitor after 7 days of treatment: bacteriostatic versus bactericidal; type: cell-based, Borrelia burgdorferi; details: for Inhibitor Activity: 7 days of treatment, then subculture
Procedure: After 7 days of treatment, a 5 µL aliquot from each treatment tube (and untreated control) was added to 1 mL of BSKII-RS medium to allow any remaining viable spirochetes in the sample to grow. After incubation for 7–21 days at 33 °C, the survival of the spirochetes was determined using dark-field microscopy to observe motility and by employing bioluminescence measurements to assess vitality of the recovered culture.
To further differentiate between bacteriostatic versus bactericidal activities of MTAN inhibitors, we subcultured drug treated spirochetes in the absence of inhibitors to recover any live B. burgdorferi remaining after seven days of inhibitor treatment (summarized in Table 4). If non-motile spirochetes from treated cultures were able to grow back, the inhibitor was determined to have a bacteriostatic effect at the selected concentration. […] Spirochete survival was determined by both dark-field microscopy and bioluminescence measurements. Microscopic examination allowed assessment of motility of the spirochetes whereas bioluminescence assays assessed recovery and viability of B. burgdorferi cells. […] By comparison, a reduction in bioluminescence compared to the untreated control was observed after treatment with dEt-ImmA at a 0.4 µM or greater concentration. […] After seven days of treatment, live spirochetes were only recovered when concentrations of ≤0.4 µM were used for dEt-ImmA and IADO.

MtnN [4] = molecular target: T1, MtnN (Borreliella burgdorferi, UniProt O50860); assay: MTAN spectrophotometric activity assay (specific activity, Km); type: biochemical, Borrelia burgdorferi; details: for Specific Activity: pH 7, 1 U = 1 µmol MTA hydrolyzed per minute; for % Max Specific Activity: relative to MTA as a substrate
T1 sequence (O50860 entry or part of it): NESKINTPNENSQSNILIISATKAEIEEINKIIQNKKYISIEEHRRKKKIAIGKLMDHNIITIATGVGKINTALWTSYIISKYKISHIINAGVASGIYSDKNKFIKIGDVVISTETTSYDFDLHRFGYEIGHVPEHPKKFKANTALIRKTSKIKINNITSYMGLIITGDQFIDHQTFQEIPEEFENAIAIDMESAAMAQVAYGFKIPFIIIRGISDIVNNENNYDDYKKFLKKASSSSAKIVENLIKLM
Procedure: (§1) Recombinant MTANs were expressed and purified as previously described. Briefly, overnight 10 mL cultures of recombinant E. coli BL21(DE3) pLysS cells containing engineered pET30a expression plasmids for Bgp, MtnN or Pfs were grown at 37 °C with shaking (150 rpm) in LB broth supplemented with 50 µg/mL kanamycin and 0.5% glucose. The culture was diluted 1:50 in fresh medium and incubated at 37 °C with shaking (150 rpm) until the absorbance (600 nm) reached 0.4–0.6. Protein expression was induced with the addition of isopropyl β-D-1-thiogalactopyranoside (IPTG) to a final concentration of 1 mM and continued overnight incubation with shaking at 30 °C. Cells were harvested by centrifugation (10,000× g/15 min), and the pellet was washed once with ice-cold lysis buffer (50 mM sodium phosphate, pH = 8.0, 300 mM NaCl, 10 mM imidazole, 2mM β mercaptoethanol). Harvested cell pellets were resuspended in 10 mL fresh lysis buffer and lysed by sonication on ice using a Misonix Sonicator 300 (power setting 7, pulse 30 s, 1 min cooling with total sonication for 2.5 min). The cell lysates were centrifuged at 10,000× g for 15 min at 4 °C to remove debris, and the lysate was further filtered through a […] syringe filter to obtain a clear extract. Recombinant N-terminal hexahistidine tagged proteins were purified from the lysate using HisPur™ affinity columns (Thermo Scientific) according to the manufacturer’s specifications, and specifically eluted with 250 mM imidazole containing buffer (pH = 7). Eluted materials were analyzed by SDS-PAGE and Coomassie blue staining and found to be >95% homogeneous. Enzyme concentrations were determined using UV scans on a Cary100 spectrophotometer (Agilent) to determine the absorbance at 280 nm and applying extinction coefficients (0.1%) of 0.594 (Bgp), 0.637 (MtnN), and 0.404 (Pfs). Enzyme stocks (1 mg/mL) were prepared in 20% glycerol and stored at −80 °C.
(§2) Enzyme specific activities were determined using previously reported optimal pH conditions (50 mM sodium phosphate, pH = 7, for Bgp, MtnN; 50 mM sodium phosphate-citrate, pH = 5, for Pfs) and a spectrophotometric activity assay that measures the decrease in UV absorbance at 275 nm that occurs when MTA is cleaved to 5-methylthioribose and adenine (ε275 = 1.6 mM^−1cm^−1). The extinction coefficients for cleavage of other nucleosides were experimentally validated and found to be the same for MSeA, FSBA, and IADO (ε275 = 1.6 mM^−1cm^−1). Due to the added UV absorbance imparted by the 5′ purine group found in PurTA, the enzyme reactions were followed spectrophotometrically at 260 nm using the experimentally determined extinction coefficient of ε260 = 5.6 mM^−1cm^−1. Enzyme specific activities for MTA were generally 1–2 U/mg (1 U = µmol MTA hydrolyzed/min). The enzyme specific activities for other nucleosides were determined and reported in U/mg and as the % max specific activity (relative to MTA at 100%).
(§3) Kinetic constants have been previously reported for MTA [18]. As MSeA was also an efficient substrate for the B. burgdorferi nucleosidases, kinetic constants were determined using the activity assay described above, varying the nucleoside concentrations from 1 to 20 µM, and fitting the data on substrate-velocity plots to the Michaelis–Menten equation using GraphPad Prism (version 6):(1) Vo=Vmax[S]/Km+[S]

Pfs [5] = molecular target: T2, Pfs (Borreliella burgdorferi, UniProt O50162); assay: as above; type: biochemical, Borrelia burgdorferi; details: for Specific Activity: pH 5, 1 U = 1 µmol MTA hydrolyzed per minute; for % Max Specific Activity: relative to MTA as a substrate
T2 sequence (O50162 entry or part of it): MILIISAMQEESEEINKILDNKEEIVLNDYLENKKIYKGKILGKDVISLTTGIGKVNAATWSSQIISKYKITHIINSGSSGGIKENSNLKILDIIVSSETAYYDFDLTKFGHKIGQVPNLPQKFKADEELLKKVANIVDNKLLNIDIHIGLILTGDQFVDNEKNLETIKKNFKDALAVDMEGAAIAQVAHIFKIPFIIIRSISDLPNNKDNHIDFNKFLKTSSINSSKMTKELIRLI
Procedure: as §1, §2, §3

Bgp [6] = molecular target: T3, Bgp (Borreliella burgdorferi, UniProt Q9F952); assay: as above; type: biochemical, Borrelia burgdorferi; details: for Specific Activity: pH 7, 1 U = 1 µmol MTA hydrolyzed per minute; for % Max Specific Activity: relative to MTA as a substrate
T3 sequence (Q9F952 entry or part of it): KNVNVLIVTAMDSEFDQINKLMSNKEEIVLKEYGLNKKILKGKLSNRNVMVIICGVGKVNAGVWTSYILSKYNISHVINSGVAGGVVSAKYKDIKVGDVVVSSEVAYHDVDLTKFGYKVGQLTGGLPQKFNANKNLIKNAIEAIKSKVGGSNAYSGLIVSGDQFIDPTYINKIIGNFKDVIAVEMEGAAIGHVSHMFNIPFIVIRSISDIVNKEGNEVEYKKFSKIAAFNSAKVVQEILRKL
Procedure: as §1, §2, §3

[7] = test system: Borrelia MTANs (Bgp, MtnN, Pfs); assay: MTAN activity/kinetics, across the nucleosidases; type: biochemical
Procedure: as §2, §3
For the other compounds, inhibition constants (Ki’s) were determined as previously described, using an MTA concentration of 100 µM and varying the inhibitor concentration from 0 to 100 µM. The inhibited velocity (Vo’) and uninhibited velocity (Vo) values were determined, and the ratio of Vo’/Vo plotted as a function of inhibitor concentration. Ki values were calculated from these plots by fitting the data to the equation for competitive inhibition using GraphPad Prism:(2) Vo^′/Vo=Km+[S]/Km+[S]+(Km[I]/Ki)

E. coli MTAN = test system: E. coli MTAN; design: method as in PMID 8941345; details: radioactive enzyme assay; cited from earlier work
Pfs [8] = molecular target: T2, Pfs; details: reported previously, ref Cornell et al., 2020 [18], read-out: Km (Michaelis constant); cited from earlier work
MtnN [9] = molecular target: T1, MtnN; details: reported previously, ref Cornell et al., 2020 [18], read-out: Km (Michaelis constant); cited from earlier work
Bgp [10] = molecular target: T3, Bgp; design: method as in Cornell et al., 2020 [18]; details: reported previously, ref Cornell et al., 2020 [18], read-out: Km (Michaelis constant); cited from earlier work
Pfs [11] = molecular target: T2, Pfs; design: method as in Cornell et al., 2020 [18]; details: reported previously, ref Cornell et al., 2020 [18], cited from earlier work
MtnN [12] = molecular target: T1, MtnN; design: method as in Cornell et al., 2020 [18]; details: reported previously, ref Cornell et al., 2020 [18], cited from earlier work
Bgp [13] = molecular target: T3, Bgp; design: method as in Cornell et al., 2020 [18]; details: reported previously, ref Cornell et al., 2020 [18], cited from earlier work
[14] = nucleoside 1 to 20 µM, read-out: Km (Michaelis constant)
[15] = read-out: Ki (inhibition constant)

With `CC1(C)S[C@@H]2[C@H](NC(=O)[C@H](N)c3ccccc3)C(=O)N2[C@H]1C(=O)O` [ampicillin, reference compound] the “concentration at which majority of the spirochetes were non-motile with stripping of the outer membrane” value (B. burgdorferi N40 [1]) was at least 0.625 µg/well and the “IC50 (percent of physiologically compromised B. burgdorferi)” value [2] was ~ 0.31 µg/µL of culture.

For “5′-deoxy-5′-methylselenoadenosine [MSeA]”, the “Inhibitor Activity” value (B. burgdorferi N40 [3]; Dose: All doses (0.0032–10 µM)) was “Bacteriostatic”, the “recovery of spirochetes (bioluminescence comparable with untreated controls)” value (B. burgdorferi N40 [3]; all concentrations, 12 days of incubation of subcultured bacteria) was “fully recovered” and the Km (MtnN [4]; [14]) was 1500 nM. The “Specific Activity” value (MtnN [4]) was 1.50 U/mg, the “% Max Specific Activity” value (MtnN [4]) was 150% and the Km (Pfs [5]; [14]) was 2120 nM. The “Specific Activity” value (Pfs [5]) was 0.27 U/mg, the “% Max Specific Activity” value (Pfs [5]) was 16% and the Km (Bgp [6]; [14]) was 1620 nM. For the same compound, the “Specific Activity” value (Bgp [6]) was 1.79 U/mg, the “% Max Specific Activity” value (Bgp [6]) was 179% and the “specific activities higher than MTA” value ([7]; Bgp and MtnN) was 50–79%. For the same compound, the Km ([7]; range over all three nucleosidases) was 1500 to 2100 nM and 1500 to 2000 nM and the IC50 (E. coli MTAN) was about 4 µM.

In the case of “5′-deoxy-5′-methylthioadenosine [MTA, reference compound]”, the Km (Pfs [8]) is listed as 610 nM, the Km (MtnN [9]) is listed as 9.09 µM and the Km (Bgp [10]) is listed as 490 nM. The “Specific Activity” value (MtnN [4]) was 1.00 U/mg, the “% Max Specific Activity” value (MtnN [4]) was 100% and the “Specific Activity” value (Pfs [5]) was 1.70 U/mg. For the same compound, the “% Max Specific Activity” value (Pfs [5]) was 100%, the “Specific Activity” value (Bgp [6]) was 1.00 U/mg and the “% Max Specific Activity” value (Bgp [6]) was 100%.

With `CCC[C@H]1N[C@@H](c2c[nH]c3c(N)ncnc23)[C@H](O)[C@@H]1O` [dEt-ImmA, 5′-deoxy-5′-ethyl-immucillin A] the “recovery of live spirochetes” value (B. burgdorferi N40 [3]; 2 µM and 10 µM, 21 days of subculture in media lacking MTAN inhibitors) was “no live spirochetes were recovered”, the “Inhibitor Activity” value (B. burgdorferi N40 [3]; Dose: 2 µM, 10 µM) was “Bactericidal” and the “concentration giving a reduction in bioluminescence compared to the untreated control” value (B. burgdorferi N40 [3]; after 12 days of incubation of subcultured bacteria) was at least 0.4 µM. The “concentrations at which live spirochetes were recovered” value (B. burgdorferi N40 [3]; after seven days of treatment) was at most 0.4 µM, the “concentrations that exert bactericidal activity” value (B. burgdorferi N40 [3]; after seven days of treatment, bacteriostatic at lower concentrations) was at least 1 µM and the Ki (Pfs [11]; [15]) was 10.5 nM. The “Ki’ (delayed onset inhibition constant)” value (Pfs [11]) was 0.53 ± 0.15 nM, the Ki (MtnN [12]; [15]) was 1.48 nM and the “Ki’ (delayed onset inhibition constant)” value (MtnN [12]) was 0.58 ± 0.05 nM. The Ki (Bgp [13]; [15]) was 2.48 nM and the “Ki’ (delayed onset inhibition constant)” value (Bgp [13]) was 0.35 ± 0.02 nM.

Source: article PMC7557402, “Evaluation of Nucleoside Analogs as Antimicrobials Targeting Unique Enzymes in Borrelia burgdorferi” (Pathogens, 2020)
